{"source": "patent US20100029479A1", "about": "“PESTICIDAL COMBINATIONS” (SYNGENTA CROP PROTECTION, INC., priority 2006, published 2010)", "key": {"Tilletia caries": {"system": "Tilletia caries", "test": "Tilletia caries, number of ears infected (seed treatment, field plots)", "assay_type": "in vivo", "details": "Winter wheat/caphorn, Antraquinone 50, combination 50 + 2 + 5 + 3 gai/100 kg seed"}, "Ustilago": {"system": "Ustilago", "test": "Ustilago, % pest incidence (seed treatment, field plots)", "assay_type": "in vivo", "details": "Antraquinone 50, combination 50 + 2 + 5 + 3 gai/100 kg seed"}}, "data": [{"smiles": "O=C1c2ccccc2C(=O)c2ccccc21", "note": "[Antraquinone]", "values": [{"measurement": "Number of Ears Infected", "setting": "Tilletia caries; Trial 1, plot 15 m^2, 253 DAP", "result": "14.3 (a)"}, {"measurement": "Number of Ears Infected", "setting": "Tilletia caries; Trial 2, plot 14.25 m^2, 220 DAP", "result": "232.3 (a)"}, {"measurement": "Number of Ears Infected", "setting": "Tilletia caries; Trial 3, plot 15 m^2, 212 DAP", "result": "84.3 (a)"}, {"measurement": "Number of Ears Infected", "setting": "Tilletia caries; Trial 4, plot 12 m^2, 192 DAP", "result": "56 (a)"}, {"measurement": "% Pest Incidence", "setting": "Ustilago; Trial 1, Winter barley var LL09OH05, plot 15 m^2, 210 DAP", "result": "18.1 (a) %"}, {"measurement": "% Pest Incidence", "setting": "Ustilago; Trial 2, Winter barley var LL05OH05, plot 14.4 m^2, 205 DAP", "result": "5.6 (a) %"}, {"measurement": "% Pest Incidence", "setting": "Ustilago; Trial 3, Winter barley, plot 14.4 m^2, 161 DAP", "result": "22.2 (a) %"}]}]}
